According to the supplement of paper PMC10307832:

Compound: CC(=O)c1c(C)c2cnc(Nc3ccc(N4CCNCC4)cn3)nc2n(C2CCCC2)c1=O [Palbociclib]
Test: relative viability (nuclei count vs DMSO), 5 days (fraction); higher = more cells survive
Procedure, shortened: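 Five library-drug doses, separated by factors of √10, were pinned into 1536-well plates holding lung cancer cell lines after an overnight stay at 37 °C. Cells were fixed, permeabilised and Hoechst-stained in one step after 5 days without medium change, then imaged at 4×. Viability compares treated-well with vehicle-well nuclei, counted in MetaXpress, as a median across plates. Passing plates had control CV below 25% and at least one doubling.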

| Cell Line | relative viability (0.01 µM) | relative viability (0.03162 µM) | relative viability (0.1 µM) | relative viability (0.3162 µM) | relative viability (1 µM) | relative viability (0.5 µM, anchor plate) |
| --- | --- | --- | --- | --- | --- | --- |
| NCI-H1563 | 0.988 | 0.896 | 0.85 | 0.869 | 0.853 |  |
| SK-LU-1 | 1.05 | 0.912 | 0.828 | 0.794 | 0.563 | 0.385 |
| EPLC-272H | 1.07 |  | 0.798 | 0.828 | 0.456 | 0.33 |
| NCI-H2342 | 1.01 | 0.846 | 0.849 | 0.785 | 0.621 | 0.527 |
| ABC-1 | 1.02 | 0.853 | 0.81 | 0.785 | 0.686 | 0.755 |
| LCLC-97TM1 | 1.03 |  | 0.657 | 0.741 | 0.272 | 0.225 |
| SW 900 | 1.01 |  | 0.768 | 0.565 | 0.541 | 0.565 |
| NCI-H661 | 0.968 | 0.862 | 0.765 | 0.611 | 0.455 | 0.415 |
| PC-3 [JPC-3] | 1.08 | 0.895 | 0.855 | 0.761 | 0.59 | 0.536 |
| SW 1573 | 0.994 | 0.789 | 0.8 | 0.723 | 0.617 | 0.419 |
| NCI-H838 | 1.06 | 0.833 | 0.761 | 0.816 | 0.353 | 0.232 |
| NCI-H2087 | 1.08 | 0.546 | 0.815 | 0.586 | 0.364 | 0.242 |
| NCI-H1666 | 1 | 0.86 | 0.873 | 0.836 | 0.582 | 0.632 |
| HCC-366 | 1 |  | 0.977 | 1 | 0.859 | 0.383 |
| NCI-H1299 | 0.981 | 0.977 | 0.906 | 0.839 | 0.729 |  |
| NCI-H1437 | 1.02 | 0.877 | 0.863 | 0.823 | 0.571 | 0.311 |
| HARA | 1.1 |  | 0.746 | 0.652 | 0.392 | 0.262 |
| H3255 | 1.04 | 0.922 | 0.823 | 0.904 | 0.519 | 0.316 |
| EMC-BAC-2 | 0.999 | 0.749 | 0.791 | 0.736 | 0.589 | 0.514 |
| COR-L 105 | 1 | 0.724 | 0.616 | 0.651 | 0.473 | 0.408 |
| UMC-11 | 1 | 0.824 | 0.709 | 0.575 | 0.291 | 0.332 |
| NCI-H1792 | 0.987 | 0.8 | 0.696 | 0.612 | 0.383 | 0.678 |
| RERF-LC-KJ | 1.02 | 0.871 | 0.968 | 1.02 | 1.02 | 1.09 |
| EKVX | 1.12 | 0.733 | 0.766 | 0.882 | 0.544 | 0.394 |
| NCI-H358 | 0.986 | 0.675 | 0.718 | 0.543 | 0.277 | 0.138 |
| HCC-78 | 0.998 | 0.756 | 0.698 | 0.703 | 0.385 | 0.477 |

| Cell Line | relative viability (0.01 µM) | relative viability (0.03162 µM) | relative viability (0.1 µM) | relative viability (0.3162 µM) | relative viability (1 µM) | relative viability (0.5 µM, anchor plate) |
| --- | --- | --- | --- | --- | --- | --- |
| LU99A | 0.91 | 0.711 | 0.924 | 0.928 | 0.65 | 0.414 |
| NCI-H2009 | 0.991 | 0.905 | 0.781 | 0.693 | 0.35 | 0.237 |
| NCI-H2405 | 0.996 | 0.797 | 0.842 | 0.889 | 0.654 | 0.52 |
| 201T | 1.02 | 0.863 | 0.9 | 0.867 | 0.571 | 0.349 |
| PC-14 | 1.13 | 0.847 | 0.841 | 0.873 | 0.503 | 0.514 |
| NCI-H322M | 0.888 | 0.825 | 0.633 | 0.648 | 0.502 | 0.492 |
| HOP-62 | 0.953 |  | 0.87 | 0.795 | 0.663 | 0.451 |
| NCI-H1755 | 1.03 | 0.896 | 0.915 | 0.845 | 0.664 | 0.443 |
| HCC-44 | 0.891 | 0.82 | 0.969 | 0.96 | 1.02 | 0.962 |
| LK-2 | 1 | 0.736 | 0.8 | 0.965 | 0.803 | 0.727 |
| NCI-H1703 | 0.912 | 0.676 | 0.842 | 0.444 | 0.345 |  |
| NCI-H2085 | 0.979 | 0.966 | 0.879 | 0.805 | 0.574 | 0.475 |
| NCI-H647 | 1.06 | 0.781 | 0.865 | 0.82 | 0.597 | 0.415 |
| NCI-H1944 | 0.971 | 0.762 | 0.886 | 0.885 | 0.532 | 0.345 |
| ChaGo-K-1 | 1.02 | 0.778 | 1.04 | 1.02 | 1.02 | 0.939 |
| NCI-H522 | 1.15 | 0.616 | 0.949 | 0.915 | 0.879 | 1.02 |
| LC-2-ad | 0.902 |  | 0.816 | 0.73 | 0.518 | 0.479 |
| HCC-827 | 1.04 | 0.904 | 0.887 | 0.912 | 0.786 | 0.483 |
| HCC-15 | 0.986 |  | 0.915 | 0.828 | 0.732 | 0.717 |
| NCI-H1793 | 1.02 | 0.54 | 0.77 | 0.682 | 0.327 | 0.325 |
| NCI-H1734 | 0.951 | 0.592 | 0.75 | 0.659 | 0.538 | 0.345 |
| NCI-H2347 | 1.05 | 0.905 | 0.87 | 0.775 | 0.684 | 0.424 |
| NCI-H596 | 0.894 | 0.775 | 0.9 | 0.876 | 1.04 |  |
| LXF-289 | 1.01 | 0.878 | 0.928 | 0.899 | 0.796 | 0.593 |
| A549 | 0.983 | 0.71 | 0.68 | 0.692 | 0.448 |  |
| NCI-H1975 | 0.923 | 0.949 | 0.924 | 0.865 | 0.793 | 0.593 |

| Cell Line | relative viability (0.01 µM) | relative viability (0.03162 µM) | relative viability (0.1 µM) | relative viability (0.3162 µM) | relative viability (1 µM) | relative viability (0.5 µM, anchor plate) |
| --- | --- | --- | --- | --- | --- | --- |
| NCI-H1355 | 0.999 | 0.672 | 0.884 | 0.844 | 0.62 | 0.427 |
| NCI-H1993 | 1.05 | 0.882 | 0.726 | 0.69 | 0.67 | 0.658 |
| LCLC-103H | 1 | 0.762 | 0.858 | 0.833 | 0.537 | 0.469 |
| NCI-H2228 | 1.01 | 0.844 | 0.937 | 0.899 | 0.795 | 0.85 |
| NCI-H441 | 0.829 | 0.655 | 0.741 | 0.741 | 0.5 | 0.235 |
| NCI-H1650 | 0.928 | 0.734 | 0.77 | 0.726 | 0.487 | 0.359 |
| NCI-H650 | 0.971 |  | 0.711 | 0.794 | 0.516 | 0.327 |
| SK-MES-1 | 0.931 | 0.852 | 0.683 | 0.648 | 0.361 | 0.327 |
| BEN | 1.04 | 0.813 | 0.778 | 0.814 | 0.476 | 0.487 |
| NCI-H2170 | 0.993 | 0.856 | 0.94 | 0.894 | 0.704 | 0.382 |
| NCI-H1915 | 1.01 | 0.695 | 0.973 | 0.902 | 0.756 | 0.527 |
| NCI-H1395 | 1.01 | 0.825 | 0.797 | 0.858 | 0.597 | 0.647 |
| IA-LM | 0.901 | 0.54 | 0.559 | 0.428 | 0.162 |  |
| NCI-H520 | 0.915 | 0.677 | 0.596 | 0.549 | 0.36 | 0.237 |
| COR-L23 | 1.05 | 0.886 | 0.739 | 0.808 | 0.528 | 0.293 |
| NCI-H2126 | 0.996 | 0.649 | 0.792 | 0.694 | 0.464 | 0.353 |
| NCI-H1651 | 0.967 | 0.971 | 0.986 | 0.971 | 0.772 | 0.537 |
| NCI-H727 | 0.814 | 0.786 | 0.653 | 0.659 | 0.564 | 0.625 |
| NCI-H460 | 0.974 | 0.81 | 0.912 | 0.864 | 0.532 | 0.199 |
| NCI-H3122 | 0.977 | 0.944 | 0.866 | 0.797 | 0.456 | 0.192 |
| CAL-12T | 1 | 0.851 | 0.75 | 0.651 | 0.611 | 0.446 |
| NCI-H23 | 0.973 | 0.417 | 0.765 | 0.877 | 0.593 | 0.538 |
| A-427 | 0.941 | 0.775 | 0.755 | 0.727 | 0.534 | 0.529 |
| LOU-NH91 | 1.09 | 0.661 | 0.723 | 0.702 | 0.608 | 0.529 |
| NCI-H2023 | 0.913 | 0.773 | 0.694 | 0.625 | 0.4 | 0.392 |
